In brackets after ≈: the same amount, converted by molar mass. Several values for one entry are separate records, joined by “and”; a condition that tells them apart may be missing. Equal values may be shown once. Read-outs that look alike come from different tables or passages of the source.
How the values were obtained:
E. coli UAEC-1 = test: MIC assay (broth microdilution, CLSI); format: cell-based; settings: Escherichia coli, UAEC1; read-out: E. coli UAEC-1 MIC
human red blood cells = test: Hemolysis assay with red blood cells; settings: human, 1 h, 200 μM, pH 7.2
Method in brief: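 Hemolysis expressed as percent of the Triton X signal with DMSO as zero, using OD405 of supernatant. Compounds from DMSO stocks were incubated with triple-washed human erythrocytes for 1 hour at 37° C. before centrifugation; three independent experiments.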

[1] = system: MRSA-2 (methicillin-resistant Staphylococcus aureus clinical isolate); test: MIC assay (broth microdilution, CLSI); format: cell-based; settings: Staphylococcus aureus, MRSA, read-out: MIC, MRSA-2
[2] = system: MRSA BAA-1707 planktonic cells and biofilms; test: Calgary Biofilm Device (CBD) assay, MBC/MBEC; settings: Staphylococcus aureus, read-out: MRSA BAA-1707 MBC
K. pneumoniae 13883 = test: MIC assay (broth microdilution, CLSI); format: cell-based, Klebsiella pneumoniae; settings: Klebsiella pneumoniae, 13883; read-out: K. pneumoniae 13883 MIC
P. aeruginosa (PAO1) = test: MIC assay (broth microdilution, CLSI); format: cell-based; settings: Pseudomonas aeruginosa, PAO1; read-out: PAO1 MIC
[3] = system: methicillin-resistant S. aureus (MRSA) strains; test: MIC assay, values summarised over MRSA strains; format: cell-based, Staphylococcus aureus
E. faecium 700221 (VRE) = test: MIC assay with Tiron or metal(II) cation co-treatment; format: cell-based, Enterococcus faecium
[4] = system: S. aureus clinical isolate SA 129; test: MIC assay (broth microdilution, CLSI); settings: Staphylococcus aureus, read-out: MIC, SA 129
[5] = system: MRSA biofilms (MRSA-2, BAA-1707, BAA-44); test: Calgary Biofilm Device assay, values summarised over MRSA strains
[6] = system: MRSA-2 persister cells (stationary cultures); test: microbe, parasite or virus in culture; settings: Staphylococcus aureus, 24 h, read-out: reduction of viable stationary MRSA-2 cells
[7] = system: S. aureus clinical isolate SA 147; test: MIC assay (broth microdilution, CLSI); settings: Staphylococcus aureus, read-out: MIC, SA 147
[8] = system: Staphylococcus epidermidis (ATCC 12228); test: MIC assay (broth microdilution, CLSI); format: cell-based; settings: Staphylococcus epidermidis, ATCC12228; Table 7; b lowest concentration tested; read-out: MIC, S. epidermidis 12228
MRSA BAA-44 = test: MIC assay (broth microdilution, CLSI); settings: Staphylococcus aureus, read-out: MIC, MRSA BAA-44
MRSE 35984 biofilms = test: Live/Dead staining (fluorescence microscopy) of MRSE 35984 biofilms; format: cell-based, Staphylococcus epidermidis; settings: 24 h
Procedure: In addition to Calgary Biofilm Device experiments, we evaluated select HPs against staphylococcal biofilms in live/dead staining experiments. HP 14 was added to 24 hour old MRSE biofilms at 0.1, 1, and 10 μM and allowed to incubate at 37° C. for an additional 24 hours. Following this, images of the treated and untreated S. epidermidis biofilm were taken using fluorescence microscopy (FIG. 11).
A mid-log culture of MRSE […] was diluted 1:1,000-fold and 500 μL was transferred to each compartment of a 4 compartment CELLview dish (Greiner Bio-One 627871). The dish was then incubated for 24 hours at 37° C. After this time, the cultures were removed and the plate was washed with 0.9% saline. The dish was then treated with the compounds in fresh media at various concentrations. DMSO was used as our negative control in this assay. The dish was incubated with the compound for 24 hours at 37° C. After this time, the cultures were removed and the dish was washed with 0.9% saline for 2 minutes. Saline was then removed and 500 μL of the stain (Live/Dead BacLight Viability Kit, Invitrogen) were added for 15 minutes and left in the dark. After this time, the stain was removed and the dish was washed twice with 0.9% saline. Then the dish was fixed with 500 μL 4% paraformaldehyde in PBS for 30 minutes. Images of remaining MRSE biofilms were then taken with a fluorescence microscope. All data were analyzed using IMAGE J software.

[9] = system: S. aureus clinical isolate SA 156; test: MIC assay (broth microdilution, CLSI); settings: Staphylococcus aureus, read-out: MIC, SA 156
[10] = system: MRSA-2 persister cells (stationary cultures); settings: 12.5 μM; reduction of viable cells over 24 h; listed as 214
[11] = Table 2B, a midpoint of 2-fold range, * partial growth inhibition at highest concentration
[12] = Table 7, a midpoint of 2-fold range, b lowest concentration tested

`Oc1ccc(I)c2nc3cc(Cl)c(Cl)cc3nc12` [Compound 12, 7,8-Dichloro-4-iodo-1-hydroxyphenazine] was tested. Which MIC (E. coli UAEC-1) did it give?
Its MIC is greater than 100 µM.

What about the “% Hemolysis (200 μM)” value (human red blood cells) of the same compound?
Its value is 1.4%.

What about the “% Hemolysis at 200 μM” value (human red blood cells) of the same compound?
Its value is 1.4%.

And the MIC ([1]; Table 2A)?
The MIC was 0.39 µM (≈ 0.152 µg/mL).

And the MIC [1, 11]?
Its MIC is 0.39 µM (≈ 0.152 µg/mL).

What about the MIC [1, 12] of the same compound?
Its MIC is 0.39 µM (≈ 0.152 µg/mL).

And the MBC [2]?
Its MBC is 75 µM (≈ 29.3 µg/mL).

What about the MIC (K. pneumoniae 13883) of the same compound?
Its MIC is greater than 100 µM.

What about the MIC (P. aeruginosa (PAO1)) of the same compound?
The MIC was greater than 100 µM.

What about the MIC ([3]; Staphylococcus aureus, MRSA, range over the MRSA strains/isolates tested, read-out: MIC against MRSA strains) of the same compound?
Its MIC is 0.15 to 0.59 µM (≈ 0.0586 to 0.231 µg/mL).

What about the MIC (E. faecium 700221 (VRE)) of the same compound?
The MIC was 3.13 µM.

And the MIC (E. faecium 700221 (VRE); Enterococcus faecium, VRE)?
Its MIC is 3.13 µM.

What about the MIC (E. faecium 700221 (VRE); Enterococcus faecium, VRE, read-out: MIC with Tiron) of the same compound?
The MIC was 3.13 µM.

And the MIC (E. faecium 700221 (VRE); Enterococcus faecium, VRE, E. faecium 700221, 200 μM CuSO4, read-out: MIC with Cu^2+)?
The MIC was 1.56 µM.

And the MIC (E. faecium 700221 (VRE); read-out: MIC with Tiron)?
The MIC was 3.13 µM.

How did the MIC [4] turn out when `Oc1c(Br)cc(I)c2nc3cc(Cl)c(Cl)cc3nc12` [Compound 14, 2-bromo-7,8-dichloro-4-iodo-1-hydroxyphenazine] was run?
The MIC was 1.56 µM (≈ 0.733 µg/mL).

And the “MBEC against MRSA biofilms” value [5]?
The value was < 10 µM and 6.25 to 9.38 µM.

And the “% Hemolysis (200 μM)” value (human red blood cells)?
The value was 2.7%.

And the “% Hemolysis at 200 μM” value (human red blood cells)?
Its value is 2.7%.

And the inhibition at 12.5 µM [6]?
The inhibition at 12.5 µM was greater than 99.9%.

What about the MIC [1, 11] of the same compound?
The MIC was 3.13 µM (≈ 1.47 µg/mL).

What about the MIC [1, 12] of the same compound?
Its MIC is 3.13 µM (≈ 1.47 µg/mL).

And the MIC [7]?
The MIC was 0.3 µM (≈ 0.141 µg/mL).

What about the MIC [8] of the same compound?
The MIC was 0.1 µM (≈ 0.047 µg/mL).

And the MIC (MRSA BAA-44)?
Its MIC is 3.13 µM (≈ 1.47 µg/mL).

And the “effect on established MRSE biofilm (Live/Dead staining)” value (“effect … (Live/Dead staining)” below) (MRSE 35984 biofilms; 0.1 μM)?
Its value is “a significant amount of MRSE biofilm cells were eradicated, however, not cleared from within the biofilm”.

What about the “effect … (Live/Dead staining)” value (MRSE 35984 biofilms; 1 μM) of the same compound?
The value was “a significant amount of the biofilm cells”.

What about the “effect … (Live/Dead staining)” value (MRSE 35984 biofilms; 10 μM) of the same compound?
The value was “removed all detectable MRSE biofilm cells from the glass surface”.

What about the MIC [9] of the same compound?
Its MIC is 0.3 µM (≈ 0.141 µg/mL).

And the “growth inhibition activity against at least one MRSA strain” value [3]?
Its value is “sub-micromolar”.

And the MRSA-2 stationary killing [10]?
Its MRSA-2 stationary killing is greater than 3 log.

Reference: US20180312473A1, “PHENAZINE DERIVATIVES AS ANTIMICROBIAL AGENTS” (priority 2015, published 2018)
